According to the supplement of paper PMC10307832:

Key:
Assay in all cases: relative viability (nuclei count vs DMSO), 5 days (fraction); higher = more cells survive
GSK126 + AZD7762 = compound: CC[C@H](C)N1C=C(C2=C(C=C(C=C21)C3=CN=C(C=C3)N4CCNCC4)C(=O)NCC5=C(C=C(NC5=O)C)C)C [GSK126] + NC(=O)Nc1cc(-c2cccc(F)c2)sc1C(=O)N[C@H]1CCCNC1 [AZD7762] (partner 0.2 µM)
Outline: (§1)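 Dosing by pin tool came one day after lung cancer cell lines were seeded in 1536-well plates, using either one drug or a fixed anchor-drug dose plus five library-drug doses (not always all listed) in √10 steps. After 5 days, nuclei were counted on 4× images. Relative viability is treated-well nuclei count divided by vehicle-well nuclei count, and values are medians of duplicate plates.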

MLN4924 + Foretinib = compound: NS(=O)(=O)OC[C@@H]1C[C@@H](n2ccc3c(N[C@H]4CCc5ccccc54)ncnc32)C[C@@H]1O [MLN4924] + COc1cc2c(Oc3ccc(NC(=O)C4(C(=O)Nc5ccc(F)cc5)CC4)cc3F)ccnc2cc1OCCCN1CCOCC1 [Foretinib] (partner 0.25 µM)
Outline: as §1

Carboplatin + Pemetrexed = compound: C1CC(C1)(C(=O)O)C(=O)O.[NH2-].[NH2-].[Pt+2] [Carboplatin] + Nc1nc2[nH]cc(CCc3ccc(C(=O)N[C@@H](CCC(=O)O)C(=O)O)cc3)c2c(=O)[nH]1 [Pemetrexed] (partner 0.2 µM)
Outline: as §1

MLN4924 + Dasatinib = compound: NS(=O)(=O)OC[C@@H]1C[C@@H](n2ccc3c(N[C@H]4CCc5ccccc54)ncnc32)C[C@@H]1O [MLN4924] + Cc1nc(Nc2ncc(C(=O)Nc3c(C)cccc3Cl)s2)cc(N2CCN(CCO)CC2)n1 [Dasatinib] (partner 0.075 µM)
Outline: as §1

| Cell Line | relative viability (GSK126 + AZD7762; first compound 0.08 µM) | relative viability (GSK126 + AZD7762; first compound 0.253 µM) | relative viability (GSK126 + AZD7762; first compound 0.8 µM) | relative viability (GSK126 + AZD7762; first compound 2.53 µM) | relative viability (GSK126 + AZD7762; first compound 8 µM) | relative viability (MLN4924 + Foretinib; first compound 0.04 µM) | relative viability (MLN4924 + Foretinib; first compound 0.1265 µM) | relative viability (MLN4924 + Foretinib; first compound 0.4 µM) | relative viability (MLN4924 + Foretinib; first compound 1.265 µM) | relative viability (MLN4924 + Foretinib; first compound 4 µM) | relative viability (Carboplatin + Pemetrexed; first compound 0.08 µM) | relative viability (Carboplatin + Pemetrexed; first compound 0.253 µM) | relative viability (Carboplatin + Pemetrexed; first compound 0.8 µM) | relative viability (Carboplatin + Pemetrexed; first compound 2.53 µM) | relative viability (Carboplatin + Pemetrexed; first compound 8 µM) | relative viability (MLN4924 + Dasatinib; first compound 0.04 µM) | relative viability (MLN4924 + Dasatinib; first compound 0.1265 µM) | relative viability (MLN4924 + Dasatinib; first compound 0.4 µM) | relative viability (MLN4924 + Dasatinib; first compound 1.265 µM) | relative viability (MLN4924 + Dasatinib; first compound 4 µM) |
| --- | --- | --- | --- | --- | --- | --- | --- | --- | --- | --- | --- | --- | --- | --- | --- | --- | --- | --- | --- | --- |
| NCI-H1703 | 0.115 | 0.115 | 0.133 | 0.118 | 0.137 | 0.267 | 0.226 | 0.19 | 0.173 | 0.248 | – | – | – | – | – | – | – | – | – | – |
| NCI-H1648 | 0.568 | 0.756 | 0.73 | 0.718 | 0.522 | – | – | – | – | – | 0.747 | 0.737 | 0.733 | 0.587 | 0.65 | – | – | – | – | – |
| NCI-H1792 | 0.68 | 0.712 | 0.537 | 0.58 | 0.567 | – | – | – | – | – | 1.21 | 0.75 | 0.755 | 0.811 | 0.608 | 0.725 | 0.819 | 1.03 | 0.902 | 0.762 |
| ABC-1 | 0.587 | 1.04 | 0.95 | 0.886 | 0.916 | 1.07 | 1.07 | 0.301 | 0.189 | 0.248 | – | – | – | – | – | 0.426 | 0.433 | 0.302 | 0.213 | 0.237 |
| IA-LM | – | – | – | – | – | 0.765 | 0.329 | 0.135 | 0.0463 | 0.0394 | – | – | – | – | – | – | – | – | – | – |
| HCC-44 | 1.04 | 1.12 | 0.99 | 0.983 | 1.01 | – | – | – | – | – | 0.637 | 0.684 | 0.569 | 0.535 | 0.606 | – | – | – | – | – |
| NCI-H1650 | – | – | – | – | – | 0.92 | 0.951 | 0.325 | 0.217 | 0.19 | 0.459 | 0.46 | 0.302 | 0.32 | 0.318 | 0.41 | 0.291 | 0.267 | 0.166 | 0.179 |
| A549 | – | – | – | – | – | 0.972 | 0.8 | 0.508 | 0.0828 | 0.0301 | – | – | – | – | – | – | – | – | – | – |
| NCI-H1299 | – | – | – | – | – | 1.01 | 0.82 | 0.499 | 0.33 | 0.176 | – | – | – | – | – | – | – | – | – | – |
| NCI-H1623 | – | – | – | – | – | 0.704 | 0.536 | 0.468 | 0.289 | 0.294 | – | – | – | – | – | 0.626 | 0.573 | 0.341 | 0.227 | 0.183 |
| NCI-H2023 | – | – | – | – | – | 0.987 | 0.719 | 0.406 | 0.0781 | 0.0729 | 0.248 | 0.209 | 0.196 | 0.15 | 0.152 | 0.618 | 0.602 | 0.325 | 0.0611 | 0.0616 |
| NCI-H522 | 0.849 | 0.888 | 0.904 | 0.93 | 0.964 | – | – | – | – | – | 0.814 | 0.924 | 1.11 | 1.01 | 0.913 | 0.845 | 0.863 | 0.652 | 0.546 | 0.437 |
| EBC-1 | – | – | – | – | – | 0.109 | 0.15 | 0.147 | 0.082 | 0.0997 | – | – | – | – | – | – | – | – | – | – |
| Calu-6 | – | – | – | – | – | 0.699 | 0.322 | 0.209 | 0.0838 | 0.0789 | – | – | – | – | – | – | – | – | – | – |
| NCI-H520 | – | – | – | – | – | 0.732 | 0.502 | 0.409 | 0.305 | 0.205 | 0.701 | 0.791 | 0.686 | 0.617 | 0.493 | 0.216 | 0.225 | 0.253 | 0.171 | 0.173 |
